# Test results published in US20230085307A1, “PYRIDAZINONE COMPOUND AND HERBICIDE” (NISSAN CHEMICAL CORPORATION, priority 2019, published 2023).
# Experiments:
# green foxtail [1] = assay: Test Example 4: herbicidal effect by soil treatment (Table 19, symbol G); assay type: in vivo, green foxtail (Setaria viridis); details: amount of applied herbicide 320 g/ha
# Summary of the method: (§1)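 Applied as a water-diluted emulsion, the compound was sprayed onto soil covering newly sown seeds. Evaluation came three weeks after application, in a greenhouse held at 25° C. to 30° C.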
# lambsquarters [2] = assay: Test Example 4: herbicidal effect by soil treatment (Table 19, symbol O); assay type: in vivo, lambsquarters (Chenopodium album); details: amount of applied herbicide 320 g/ha
# Summary of the method: as §1
# velvetleaf [3] = assay: Test Example 4: herbicidal effect by soil treatment (Table 19, symbol M); assay type: in vivo, velvetleaf (Abutilon theophrasti); details: amount of applied herbicide 320 g/ha
# Summary of the method: as §1
# barnyard grass [4] = assay: Test Example 3: herbicidal effect by foliage application, Wagner pot (Table 18, symbol H); assay type: in vivo, barnyard grass (Echinochloa crus-galli); details: 320 g/ha
# Summary of the method: (§2)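 Plants were sown in alluvial soil held under 0.1–0.5 cm standing water and grown 14 days in a greenhouse at 25–30 °C. An emulsifiable formulation, water-diluted to the set dose, was then sprayed onto the foliage, and effects were scored three weeks later using previously defined criteria.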
# barnyard grass [5] = assay: Test Example 5: herbicidal effect by foliage application, plastic box (Table 20, symbol H); assay type: in vivo, barnyard grass (Echinochloa crus-galli); details: foliage application, 320 g/ha, three weeks after application
# Summary of the method: (§3)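 Sow seeds spot-wise in sterilized diluvial soil; cover with ~1.5 cm soil. Grow 14 days in greenhouse, 25° C. to 30° C. Spray foliage with emulsion diluted to predetermined amount. Rate effect after 3 weeks.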
# windgrass [6] = assay: Test Example 4: herbicidal effect by soil treatment (Table 19, symbol L); assay type: in vivo, windgrass (Apera spica-venti); details: amount of applied herbicide 320 g/ha
# Summary of the method: as §1
# Chinese sprangletop = assay: Test Example 3: herbicidal effect by foliage application, Wagner pot (Table 18, symbol D); assay type: in vivo, chinese sprangletop (Leptochloa chinensis); details: 320 g/ha
# Summary of the method: as §2
# velvetleaf [7] = assay: Test Example 5: herbicidal effect by foliage application, plastic box (Table 20, symbol M); assay type: in vivo, velvetleaf (Abutilon theophrasti); details: foliage application, 320 g/ha, three weeks after application
# Summary of the method: as §3
# redroot pigweed = assay: Test Example 4: herbicidal effect by soil treatment (Table 19, symbol N); assay type: in vivo, redroot pigweed (Amaranthus retroflexus); details: amount of applied herbicide 320 g/ha
# Summary of the method: as §1
# oval-leafed pondweed = assay: Test Example 1: herbicidal activity, application before weed generation under submerged conditions (Table 16, symbol C); assay type: in vivo, oval-leafed pondweed (Monochoria vaginalis); details: amount of applied herbicide 320 g/ha
# Summary of the method: (§4)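 Submerged Wagner pots (alluvial soil, 4 cm water) sown with weed seeds and planted with 2.5-leaf rice seedlings; emulsifiable concentrate diluted in water applied to water surface on sowing day. Held in greenhouse at 25-30 °C; injury scored 0-5 by herbicidal rate after three weeks.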
# barnyard grass [8] = assay: Test Example 4: herbicidal effect by soil treatment (Table 19, symbol H); assay type: in vivo, barnyard grass (Echinochloa crus-galli); details: amount of applied herbicide 320 g/ha
# Summary of the method: as §1
# wild oat [9] = assay: Test Example 5: herbicidal effect by foliage application, plastic box (Table 20, symbol I); assay type: in vivo, wild oat (Avena fatua); details: foliage application, 320 g/ha, three weeks after application
# Summary of the method: as §3
# chickweed = assay: Test Example 4: herbicidal effect by soil treatment (Table 19, symbol P); assay type: in vivo, common chickweed (Stellaria media); details: amount of applied herbicide 320 g/ha
# Summary of the method: as §1
# southern crabgrass [10] = assay: Test Example 5: herbicidal effect by foliage application, plastic box (Table 20, symbol F); assay type: in vivo, southern crabgrass (Digitaria ciliaris); details: foliage application, 320 g/ha, three weeks after application
# Summary of the method: as §3
# lambsquarters [11] = assay: Test Example 5: herbicidal effect by foliage application, plastic box (Table 20, symbol O); assay type: in vivo, lambsquarters (Chenopodium album); details: foliage application, 320 g/ha, three weeks after application
# Summary of the method: as §3
# Italian ryegrass [12] = assay: Test Example 4: herbicidal effect by soil treatment (Table 19, symbol K); assay type: in vivo, Italian ryegrass (Lolium multiflorum); details: amount of applied herbicide 320 g/ha
# Summary of the method: as §1
# persian speedwell [13] = assay: Test Example 4: herbicidal effect by soil treatment (Table 19, symbol R); assay type: in vivo, Persian speedwell (Veronica persica); details: amount of applied herbicide 320 g/ha
# Summary of the method: as §1
# Japanese bulrush = assay: Test Example 1: herbicidal activity, application before weed generation under submerged conditions (Table 16, symbol B); assay type: in vivo, Japanese bulrush (Schoenoplectus juncoides); details: amount of applied herbicide 320 g/ha
# Summary of the method: as §4
# green foxtail [14] = assay: Test Example 5: herbicidal effect by foliage application, plastic box (Table 20, symbol G); assay type: in vivo, green foxtail (Setaria viridis); details: foliage application, 320 g/ha, three weeks after application
# Summary of the method: as §3
# persian speedwell [15] = assay: Test Example 5: herbicidal effect by foliage application, plastic box (Table 20, symbol R); assay type: in vivo, Persian speedwell (Veronica persica); details: foliage application, 320 g/ha, three weeks after application
# Summary of the method: as §3
# late watergrass = assay: Test Example 1: herbicidal activity, application before weed generation under submerged conditions (Table 16, symbol A); assay type: in vivo, late watergrass (Echinochloa oryzicola); details: amount of applied herbicide 320 g/ha
# Summary of the method: as §4
# wild oat [16] = assay: Test Example 4: herbicidal effect by soil treatment (Table 19, symbol I); assay type: in vivo, wild oat (Avena fatua); details: amount of applied herbicide 320 g/ha
# Summary of the method: as §1
# Italian ryegrass [17] = assay: Test Example 5: herbicidal effect by foliage application, plastic box (Table 20, symbol K); assay type: in vivo, Italian ryegrass (Lolium multiflorum); details: foliage application, 320 g/ha, three weeks after application
# Summary of the method: as §3
# southern crabgrass [18] = assay: Test Example 4: herbicidal effect by soil treatment (Table 19, symbol F); assay type: in vivo, southern crabgrass (Digitaria ciliaris); details: amount of applied herbicide 320 g/ha
# Summary of the method: as §1
# windgrass [19] = assay: Test Example 5: herbicidal effect by foliage application, plastic box (Table 20, symbol L); assay type: in vivo, windgrass (Apera spica-venti); details: foliage application, 320 g/ha, three weeks after application
# Summary of the method: as §3
# blackgrass [20] = assay: Test Example 5: herbicidal effect by foliage application, plastic box (Table 20, symbol J); assay type: in vivo, blackgrass (Alopecurus myosuroides); details: foliage application, 320 g/ha, three weeks after application
# Summary of the method: as §3
# blackgrass [21] = assay: Test Example 4: herbicidal effect by soil treatment (Table 19, symbol J); assay type: in vivo, blackgrass (Alopecurus myosuroides); details: amount of applied herbicide 320 g/ha
# Summary of the method: as §1
# rice flat sedge = assay: Test Example 3: herbicidal effect by foliage application, Wagner pot (Table 18, symbol E); assay type: in vivo, rice flat sedge (Cyperus iria); details: 320 g/ha
# Summary of the method: as §2
smiles,measurement,setting,value
CCOc1ccccc1-c1sc2cc(OC)c(Cl)cc2c1-c1c(O)c(C)nn(C)c1=O [5-072],"G: green foxtail, herbicidal effect grade",green foxtail [1],4 (Herbicidal rate of 70% or more and less than 90%)
same,"O: lambsquarters, herbicidal effect grade",lambsquarters [2],3 (Herbicidal rate of 40% or more and less than 70%)
same,"M: velvetleaf, herbicidal effect grade",velvetleaf [3],1 (Herbicidal rate of 5% or more and less than 20%)
same,herbicidal effect on barnyard grass (H),barnyard grass [4],5 (Herbicidal rate of 90% or more (almost completely withered))
same,herbicidal effect on barnyard grass (H),barnyard grass [5],5 (Herbicidal rate of 90% or more (almost completely withered))
same,"L: windgrass, herbicidal effect grade",windgrass [6],0 (Herbicidal rate of 5% or less (almost no effect))
same,herbicidal effect on Chinese sprangletop (D),Chinese sprangletop,3 (Herbicidal rate of 40% or more and less than 70%)
same,herbicidal effect on velvetleaf (M),velvetleaf [7],5 (Herbicidal rate of 90% or more (almost completely withered))
same,"N: redroot pigweed, herbicidal effect grade",redroot pigweed,3 (Herbicidal rate of 40% or more and less than 70%)
same,"Herbicidal effect, C: oval-leafed pondweed",oval-leafed pondweed,0 (Herbicidal rate of 5% or less (almost no effect))
same,"H: barnyard grass, herbicidal effect grade",barnyard grass [8],1 (Herbicidal rate of 5% or more and less than 20%)
same,herbicidal effect on wild oat (I),wild oat [9],2 (Herbicidal rate of 20% or more and less than 40%)
same,"P: chickweed, herbicidal effect grade",chickweed,2 (Herbicidal rate of 20% or more and less than 40%)
same,herbicidal effect on southern crabgrass (F),southern crabgrass [10],5 (Herbicidal rate of 90% or more (almost completely withered))
same,herbicidal effect on lambsquarters (O),lambsquarters [11],4 (Herbicidal rate of 70% or more and less than 90%)
same,"K: Italian ryegrass, herbicidal effect grade",Italian ryegrass [12],0 (Herbicidal rate of 5% or less (almost no effect))
same,"R: persian speedwell, herbicidal effect grade",persian speedwell [13],3 (Herbicidal rate of 40% or more and less than 70%)
same,"Herbicidal effect, B: Japanese bulrush",Japanese bulrush,2 (Herbicidal rate of 20% or more and less than 40%)
same,herbicidal effect on green foxtail (G),green foxtail [14],5 (Herbicidal rate of 90% or more (almost completely withered))
same,herbicidal effect on persian speedwell (R),persian speedwell [15],5 (Herbicidal rate of 90% or more (almost completely withered))
same,"Herbicidal effect, A: late watergrass",late watergrass,0 (Herbicidal rate of 5% or less (almost no effect))
same,"I: wild oat, herbicidal effect grade",wild oat [16],0 (Herbicidal rate of 5% or less (almost no effect))
same,herbicidal effect on Italian ryegrass (K),Italian ryegrass [17],0 (Herbicidal rate of 5% or less (almost no effect))
same,"F: southern crabgrass, herbicidal effect grade",southern crabgrass [18],5 (Herbicidal rate of 90% or more (almost completely withered))
same,herbicidal effect on windgrass (L),windgrass [19],5 (Herbicidal rate of 90% or more (almost completely withered))
same,herbicidal effect on blackgrass (J),blackgrass [20],3 (Herbicidal rate of 40% or more and less than 70%)
same,"J: blackgrass, herbicidal effect grade",blackgrass [21],0 (Herbicidal rate of 5% or less (almost no effect))
same,herbicidal effect on rice flat sedge (E),rice flat sedge,5 (Herbicidal rate of 90% or more (almost completely withered))
